# Where two headings read alike, the source gives them in different places.
# B1: Preparation 22: complex of recombinant human OCIF dimer and DS5; DS5 150 mg/ml, OCIF 5 mg/ml, 7° C., pH 10.5, 168 hours (conjugate, UniProt O00300 22-401, looked up)
# Tumor necrosis factor …: ETFPPKYLHYDEETSHQLLCDKCPPGTYLKQHCTAKWKTVCAPCPDHYYTDSWHTSDECLYCSPVCKELQYVKQECNRTHNRVCECKEGRYLEIEFCLKHRSCPPGFGVVQAGTPERNTVCKRCPDGFFSNETSSKAPCRKHTNCSVFGLLLTQKGNATHDNICSGNSESTQKCGIDVTLCEEAFFRFAVPTKFTPNWLSVLVDNLPGTKVNAESVERIKRQHSSQEQTFQLLKLWKHQNKDQDIVKKIIQDIDLCENSVQRHIGHANLTFEQLRSLMESLPGKKVGAEDIEKTIKACKPSDQILKLLSLWRIKNGDQDTLKGLMHALKHSKTYHFPKTVTQSLKKTIRFLHSFTMYKLYQKLFLEMIGNQVQSVKISCL
# modifications: dimer complexed with DS5
# notes: complex of recombinant human OCIF dimer and DS5; DS5 150 mg/ml, OCIF 5 mg/ml, 7° C., pH 10.5, 168 hours
# Tested on: Lewis rat with adjuvant (Mycobacterium butyricum) induced arthritis
# Type: in vivo
# Conditions: distal end of right-and-left thighbone, 21st day after adjuvant, 14th to 20th day
# [1] = Example 2, celecoxib 1 mg/kg orally every day and/or Preparation 22 3.5 mg/kg intraperitoneally
Molecule,Bone density (average ± standard deviation) [1] [mg/cm^2],"Bone density (average ± standard deviation) (Example 1, loxoprofen sodium 5 mg/kg orally and/or Preparation 4 0.1 mg/kg intraperitoneally, every day) [mg/cm^2]"
"Cc1ccc(-c2cc(C(F)(F)F)nn2-c2ccc(S(N)(=O)=O)cc2)cc1 [Celecoxib, celecoxib]",103.0 ± 1.8,
"CC(C(=O)O)c1ccc(CC2CCCC2=O)cc1 (stereo not drawn) [Loxoprofen sodium, loxoprofen sodium]",,106.5 ± 0.8
B1,104.2 ± 2.1,
